Measurements as given in ChEMBL document CHEMBL3352015, “The binding mechanisms of plasma protein to active compounds in Alismaorientale rhizomes (Alismatis Rhizoma)” (Bioorg Med Chem Lett, 2014).

Experiments:
Assay type in all cases: ADME, cell-free; call rule not given here
[1] = Binding affinity to Hb in rat plasma at 1.5 x 10' -5 to 2.8 x 10' -5 mmol/l by CD spectroscopy
[2] = Plasma protein binding in rat at 408 ug/ml by ultrafiltration method; conditions: read-out: PPB (converted)
[3] = Plasma protein binding in rat at 1020 ug/ml by ultrafiltration method; conditions: read-out: PPB (converted)
[4] = Binding affinity to Hb in rat plasma by SDS-PAGE analysis
[5] = Binding affinity to Hb in rat plasma at 2.5 x 10' -6 to 15 x 10' -6 mmol/l by fluorescence emission spectroscopy
[6] = Plasma protein binding in rat at 816 ug/ml by ultrafiltration method; conditions: read-out: PPB (converted)

For `CC(=O)O[C@H]([C@@H](O)C[C@@H](C)C1=C2C[C@H](O)[C@H]3[C@@]4(C)CCC(=O)C(C)(C)[C@@H]4CC[C@]3(C)[C@@]2(C)CC1)C(C)(C)O`, the Activity [1] was “Active”, the fraction unbound at 408 ug/ml [2] was 0.3 and the fraction unbound at 1020 ug/ml [3] was 0.279. For the same molecule, the Activity [4] was “Active”, the Activity [5] was “Active” and the fraction unbound at 816 ug/ml [6] was 0.29.
